The source of these data is patent publication US20240216402A1, “PHARMACEUTICAL COMPOSITION, AND PREPARATION METHOD THEREFOR AND APPLICATION THEREOF” (QILU PHARMACEUTICAL CO., LTD., priority 2021, published 2024).

The nature of data set [1]: particle size distribution of raw material samples. In kind it is physicochemical. The source says: In the present invention, D50 refers to the particle size corresponding to the cumulative volume distribution percentage of spirocyclic aryl phosphorus oxides or pharmaceutically acceptable salts thereof reaching 50% measured from a small particle size; D90 refers to the particle size corresponding to the cumulative volume distribution percentage of spirocyclic aryl phosphorus oxides or pharmaceutically acceptable salts thereof reaching 90% measured from a small particle size.

Data set [2] deals with other related serine, threonine and tyrosine except EGFR wild type. As to the kind of experiment: kinase selectivity. Format: biochemical. The settings on record: in the detected concentration range.
Data set [3] is described as follows: solubility in solvents (description of the substance). Format: physicochemical. The text has this: (§1) The solubility of the drug directly influences the dissolution rate of the composition containing the drug, which in turn influences the bioavailability of the pharmaceutical composition. Therefore, how to improve the dissolution rate of pharmaceutical compositions containing spirocyclic aryl phosphorus oxide in solvents other than hydrochloric acid has become an urgent problem to be solved.

Data set [4] in a line: hygroscopicity (description of the substance). In kind it is physicochemical.
Description: as §1

Data set [5] can be described thus: Determination of solubility in buffers at different pHs (saturated solubility by HPLC). In kind it is physicochemical. The settings on record: for solubility at 24 h: thermodynamic from solid, 37° C. The method, then:
(§2) The solubilities of spirocyclic aryl phosphorus oxides in buffers at different pHs were determined. Nine test samples of 4 mg were each weighed and added to sample bottles of 1.5 mL, and then different solvents (0.1 mol/L HCl, 0.01 mol/L HCl, pH3.5 acetate buffer, pH4.5 acetate buffer, pH5.5 phosphate buffer, pH6.5 phosphate buffer, pH6.8 phosphate buffer, pH7.5 phosphate buffer and water) of 1 mL were added. According to the dissolution, the raw material compounds were continuously added to form a saturated solution. A magneton was added to the saturated solution and then stirred on a magnetic agitator (temperature was 37° C., away from light). After stirring for 24 hours, the samples were taken and centrifuged, and the residual solid samples in the lower layer were tested by X-ray powder diffraction (XRPD). The upper sample was filtered by a filter membrane, the final pH value of the filtrate was measured, and the saturated solubility of the compound was determined by high performance liquid chromatography (HPLC).

Data set [6] can be described thus: XRPD of residual solid in the solubility test. Particulars: 24 hrs. In kind it is physicochemical. The procedure:
as §2

The term solubility denotes how much of the substance goes into solution per volume. Read a high solubility as much dissolved substance.

≈ marks a conversion by molar mass, not a printed value. A value given as a limit tells only on which side of the number the result lay.

Consider `COc1cc(N2CCC3(CCN(C)CC3)CC2)ccc1Nc1ncc(Cl)c(Nc2ccccc2P(C)(C)=O)n1` [Sample 6], for which, in data set [1], the “Particle size D10 (μm)” value is listed as 2.3 μm, the “Particle size D50 (μm)” value stood at 18.2 μm and the “Particle size D90 (μm)” value is 79.6 μm.
With `COc1cc(N2CCC3(CCN(C)CC3)CC2)ccc1Nc1ncc(Cl)c(Nc2ccccc2P(C)(C)=O)n1` [Sample 2], in data set [1], the “Particle size D10 (μm)” value is recorded as 1.3 μm, the “Particle size D50 (μm)” value is listed as 10.1 μm and the “Particle size D90 (μm)” value is reported as 27.1 μm.
`COc1cc(N2CCC3(CCN(C)CC3)CC2)ccc1Nc1ncc(Cl)c(Nc2ccccc2P(C)(C)=O)n1` [Sample 3]: in data set [1], the “Particle size D10 (μm)” value came to 1.6 μm, the “Particle size D50 (μm)” value came to 13.0 μm and the “Particle size D90 (μm)” value turned out to be 40.3 μm.
On to `COc1cc(N2CCC3(CCN(C)CC3)CC2)ccc1Nc1ncc(Cl)c(Nc2ccccc2P(C)(C)=O)n1` [Sample 4], for which, in data set [1], the “Particle size D10 (μm)” value is on record as 5.0 μm, the “Particle size D50 (μm)” value was determined as 23.8 μm and the “Particle size D90 (μm)” value came out at 62 μm.
Regarding `COc1cc(N2CCC3(CCN(C)CC3)CC2)ccc1Nc1ncc(Cl)c(Nc2ccccc2P(C)(C)=O)n1` [spirocyclic aryl phosphorus oxide, (2-((5-chloro-2-((2-methoxy-4-(9-methyl-3,9-diazaspiro[5.5]undecan-3-yl)phenyl)amino)pyrimidin-4-yl)amino)phenyl)dimethylphosphine oxide], the “inhibitory activity to other kinases” value in data set [2] was “Low inhibitory activity”. Moreover, the solubility result in data set [3] (1 mol/L hydrochloric acid solution) was “easily soluble”; in data set [3] (1 mol/L sodium hydroxide solution) it was “practically insoluble, or insoluble”; in data set [3] (acetonitrile), “slightly soluble”; in data set [3] (dichloromethane), “easily soluble”; in data set [3] (ethanol), “slightly soluble”; in data set [3] (methanol), “sparingly soluble”. In data set [3] (water), the solubility result is “slightly soluble”. In addition, the hygroscopicity result in data set [4] is reported as “almost no hygroscopicity”. The “Dose/solubility (mL, in 60 mg specifications)” value in data set [5] (0.01 mol/L HCl (pH2.02)) is listed as 8.69 mL; in data set [5] (0.1 mol/L HCl (pH 1.02)), 1.12 mL; in data set [5] (pH 3.5 buffer (pH 3.53)) it was 0.22 mL; in data set [5] (pH 4.5 buffer (pH 4.49)), 0.56 mL; in data set [5] (pH 5.5 buffer (pH 5.47)), 8.45 mL; in data set [5] (pH 6.5 buffer (pH 6.45)), 5.41 mL. For the same molecule, the figures for the “Dose/solubility (mL, in 60 mg specifications)” value in data set [5] (pH 6.8 buffer (pH 6.83)), in data set [5] (pH 7.5 buffer (pH 7.53)) and in data set [5] (water (pH 6.33)) were 16.67 mL, 70.59 mL and more than 250 mL, respectively. Moreover, the “Conclusions (solubility class)” value in data set [5] (0.1 mol/L HCl (pH 1.02)) is reported as “soluble (10 ml to less than 30 ml)”. Moreover, the solubility at 24 h is 6900 µg/mL (≈ 12.1 mM) in data set [5] (pH 2.02, simulated gastric fluid, 0.01 mol/L HCl (pH2.02)); 279000 µg/mL (≈ 491 mM) in data set [5] (pH 3.5 acetate buffer, aqueous buffer, pH 3.5 buffer (pH 3.53), acetate); 108000 µg/mL (≈ 190 mM) in data set [5] (pH 4.5 acetate buffer, aqueous buffer, pH 4.5 buffer (pH 4.49), acetate); 7100 µg/mL (≈ 12.5 mM) in data set [5] (pH 5.5 phosphate buffer, aqueous buffer, pH 5.5 buffer (pH 5.47), phosphate); 11100 µg/mL (≈ 19.5 mM) in data set [5] (pH 6.5 phosphate buffer, aqueous buffer, pH 6.5 buffer (pH 6.45), phosphate); 3600 µg/mL (≈ 6.33 mM) in data set [5] (pH 6.8 phosphate buffer, aqueous buffer, pH 6.8 buffer (pH 6.83), phosphate). Moreover, the solubility at 24 h in data set [5] (pH 7.5 phosphate buffer, aqueous buffer, pH 7.5 buffer (pH 7.53), phosphate) was 850 µg/mL (≈ 1.49 mM); in data set [5] (simulated gastric fluid, 0.1 mol/L HCl (pH 1.02)), 53400 µg/mL (≈ 93.8 mM); in data set [5] (water (pH 6.33)) it was 60 µg/mL (≈ 0.105 mM). Further, the “XRPD (crystal form of residual solid)” value in data set [6] (0.01 mol/L HCl (pH2.02)), in data set [6] (0.1 mol/L HCl (pH 1.02)), in data set [6] (pH 3.5 buffer (pH 3.53)), in data set [6] (pH 4.5 buffer (pH 4.49)), in data set [6] (pH 5.5 buffer (pH 5.47)) and in data set [6] (pH 6.5 buffer (pH 6.45)) was “no change” throughout. Further, the “XRPD (crystal form of residual solid)” value in data set [6] (pH 6.8 buffer (pH 6.83)), in data set [6] (pH 7.5 buffer (pH 7.53)) and in data set [6] (water (pH 6.33)) was “no change” throughout.
`COc1cc(N2CCC3(CCN(C)CC3)CC2)ccc1Nc1ncc(Cl)c(Nc2ccccc2P(C)(C)=O)n1` [Sample 8]: in data set [1], the “Particle size D10 (μm)” value is 7.8 μm, the “Particle size D50 (μm)” value is given as 63.1 μm and the “Particle size D90 (μm)” value came out at 193 μm.
`COc1cc(N2CCC3(CCN(C)CC3)CC2)ccc1Nc1ncc(Cl)c(Nc2ccccc2P(C)(C)=O)n1` [Sample 7]: in data set [1], the “Particle size D10 (μm)” value is recorded as 6.8 μm, the “Particle size D50 (μm)” value is on record as 47.9 μm and the “Particle size D90 (μm)” value was found to be 122 μm.
For `COc1cc(N2CCC3(CCN(C)CC3)CC2)ccc1Nc1ncc(Cl)c(Nc2ccccc2P(C)(C)=O)n1` [Sample 1], in data set [1], the “Particle size D10 (μm)” value was determined as 0.7 μm, the “Particle size D50 (μm)” value is 5.4 μm and the “Particle size D90 (μm)” value worked out at 11.6 μm.
`COc1cc(N2CCC3(CCN(C)CC3)CC2)ccc1Nc1ncc(Cl)c(Nc2ccccc2P(C)(C)=O)n1` [Sample 5]: in data set [1], the “Particle size D10 (μm)” value turned out to be 1.8 μm, the “Particle size D50 (μm)” value amounted to 16.1 μm and the “Particle size D90 (μm)” value came out at 69 μm.
